From US20230129364A1, “PYRROLIDINE DERIVATIVE, AND PHARMACEUTICAL COMPOSITION FOR PREVENTING OR TREATING BETA-AMYLOID OR TAU PROTEIN-ASSOCIATED DISEASES CONTAINING SAME” (YONSEI UNIVERSITY, UNIVERSITY - INDUSTRY FOUNDATION (UIF), priority 2019, published 2023) come the findings set out here.

Molecules are shown by their SMILES.

Holding throughout (type): biochemical
The target of test [1] is T1, aggregated beta-amyloid; human Aβ 1-42 (UniProtKB-P05067, a.a. 672-713) (Homo sapiens, UniProt P05067).
T1 construct: UniProtKB-P05067, a.a; 672-713
T1 sequence (P05067 672-713): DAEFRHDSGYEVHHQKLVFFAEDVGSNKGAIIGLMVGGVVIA
As to the kind of experiment: Beta-amyloid aggregate degradation test (thioflavin T assay). The settings on record: pre-aggregated Aβ, further 3 days at 37° C., ThT fluorescence vs control = 100%. The method, then:
Aβ (beta-amyloid; human A3 1-42 monomer (UniProtKB-P05067, a.a. 672-713)) was dissolved at a concentration of 10 mM in dimethyl sulfoxide (DMSO), and the resulting solution was diluted to 250 μM using distilled water, and then incubated at 37° C. for 3 days to induce aggregation. The aggregated beta-amyloid was added with each test compound in an amount of 50 or 500 μM such that the final concentration reached 25 μM, and was further cultured at 37° C. for 3 days to induce reaction. The aggregate degradation effect of each test compound was measured by thioflavin T (ThT) assay (see Example 2). Specifically, 25 μL of the reaction solution was charged in each well of a 96-well plate for fluorescence analysis and 75 μL of the prepared thioflavin-T solution was charged in each well. The reaction was allowed to proceed at room temperature in a dark laboratory for 5 minutes and then fluorescence values were measured at an excitation wavelength of 450 nm and an emission wavelength of 485 nm using a multi-mode microplate reader. The ratio of the fluorescence value measured in the group obtained by treating with each test compound to 100% of the fluorescence value of the group (control group) obtained by treating only with beta-amyloids and inducing aggregation for 3 days is set forth in Table 4 below: […]

Test [2] addresses T2, Tau protein (wild-type K18) (Homo sapiens, UniProt P10636).
T2 construct: Tau protein (wild-type K18)
Description: Tau protein aggregation inhibition test (thioflavin T assay). The settings on record: heparin/DTT-induced aggregation, 37° C. 5 days, ThT fluorescence vs tau-only control = 100%. As for the experimental part: Tau protein (wild-type K18) was dissolved in phosphate-buffered saline (PBS, pH 7.4) at a concentration of 1 mg/mL to prepare a tau protein solution. In order to induce aggregation of tau proteins, 0.1 mg/mL of heparin and 100 μM dithiothreitol (DTT) were added to 1 mg/mL of the tau protein solution, followed by incubation at 37° C. for 5 days. At this time, the result was mixed with each test compound (50, 500 μM) such that the final concentration reached 0.5 mg/mL, followed by further incubation.
The inhibitory effect of each compound against tau aggregation was measured based on the intensity of fluorescence by thioflavin T (ThT) assay (see Example 2). More specifically, 25 μL of the reaction solution was charged in each well of a 96-well plate for fluorescence analysis, and 75 μL of the prepared thioflavin-T solution was then charged in each well. The reaction was allowed to proceed at room temperature in a dark laboratory for 5 minutes, and then fluorescence values were measured at an excitation wavelength of 450 nm and an emission wavelength of 485 nm using a multi-mode microplate reader.
The ratio of the fluorescence value measured in the group obtained by treating with each test compound to 100% of the fluorescence value of the group (control group) obtained by treating only with tau proteins and inducing aggregation for 5 days is set forth in Table 5 below: […]

Test [3] concerns the target T3, aggregated tau protein (wild-type K18) (Homo sapiens, UniProt P10636).
T3 construct: Tau protein (wild-type K18)
As to the kind of experiment: Tau protein aggregate degradation test (thioflavin T assay). The settings on record: pre-aggregated tau, further 5 days at 37° C., ThT fluorescence vs control = 100%. As for the experimental part: Tau protein (wild-type K18) was dissolved in phosphate-buffered saline (PBS, pH 7.4) at a concentration of 1 mg/mL to prepare a tau protein solution. 0.1 mg/mL of heparin and 100 μM dithiothreitol (DTT) were added to 1 mg/mL of the tau protein solution, followed by incubation at 37° C. for 5 days to induce tau protein aggregation. The aggregated tau protein was mixed with each test compound in an amount of 50 or 500 μM such that the final concentration reached 0.5 mg/mL, followed by further incubation at 37° C. for 5 days to induce reaction.
The degradation effect of each compound on the tau aggregates was measured by thioflavin T (ThT) assay (see Example 2). More specifically, 25 μL of the reaction solution was charged in each well of a 96-well plate for fluorescence analysis and 75 μL of the prepared thioflavin-T solution was charged in each well. The reaction was allowed to proceed at room temperature in a dark laboratory for 5 minutes and then fluorescence values were measured at an excitation wavelength of 450 nm and an emission wavelength of 485 nm using a multi-mode microplate reader.
The ratio of the fluorescence value measured in the group obtained by treating with each test compound to 100% of the fluorescence value of the group (control group) obtained by treating only with tau proteins and inducing aggregation for 5 days is set forth in Table 6 below: […]

T3 sequence (P10636 561-685 limits assumed): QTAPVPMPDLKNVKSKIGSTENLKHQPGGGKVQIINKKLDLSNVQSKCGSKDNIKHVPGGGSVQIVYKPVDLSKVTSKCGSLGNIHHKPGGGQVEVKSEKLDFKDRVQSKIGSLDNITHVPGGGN
T2 sequence (P10636 561-685 limits assumed): as above

For `CCN1C(=O)C(Cc2ccc3occc3c2)NC1=S` (stereo not shown) [DN205353, 5-(benzofnran-5-ylmethyl)-3-ethyl-2-thioxoimidazolidin-4-one], in test [1] (500 uM test compound), the “Beta-amyloid aggregate degradation activity (% of control)” value is recorded as 90.19 % of control. Further, the “Tau aggregation remaining (ThT fluorescence, % of tau-only control)” value in test [2] (50 uM test compound) is recorded as 61.551 % of control; in test [2] (500 uM test compound), 66.948 % of control. The “ThT fluorescence remaining (% of control)” value in test [3] (50 uM test compound) was 66.25 % of control; in test [3] (500 uM test compound), 80.59 % of control.
With `O=C1NC(=S)S/C1=C\c1c[nH]c2ncccc12` [DN205355, (Z)-5-((1H-pyrrolo[2,3-b]pyridin-3-yl)methylene)-2-thioxothiazolidin-4-one], the “Beta-amyloid aggregate degradation activity (% of control)” value in test [1] (50 uM test compound) is recorded as 93.80 % of control; in test [1] (500 uM test compound), 44.61 % of control. Moreover, the “Tau aggregation remaining (ThT fluorescence, % of tau-only control)” value in test [2] (50 uM test compound) is 40.038 % of control; in test [2] (500 uM test compound), 25.883 % of control. The “ThT fluorescence remaining (% of control)” value in test [3] (50 uM test compound) is 49.41 % of control; in test [3] (500 uM test compound), 30.65 % of control.
For the compound `CCN1C(=O)/C(=C/c2c[nH]c3cccnc23)NC1=S` [DN204817, (Z)-5-((1H-pyrrolo[3,2-b]pyridin-3-yl)methylene)-3-ethyl-2-thioxoimidazolidin-4-one], the “Beta-amyloid aggregate degradation activity (% of control)” value in test [1] (500 uM test compound) is given as 78.39 % of control. Further, the results for the “Tau aggregation remaining (ThT fluorescence, % of tau-only control)” value in test [2] (50 uM test compound) and in test [2] (500 uM test compound) were 87.3 % of control and 66.18 % of control, respectively. The “ThT fluorescence remaining (% of control)” value in test [3] (50 uM test compound) is on record as 49.84 % of control; in test [3] (500 uM test compound), 43.06 % of control.
For `O=C1NC(=S)S/C1=C\c1csc2ccccc12` [DN204818, (Z)-5-(benzo[b]thiophen-3-ylmethylene)-2-thioxothiazolidin-4-one], the figures for the “Beta-amyloid aggregate degradation activity (% of control)” value in test [1] (50 uM test compound) and in test [1] (500 uM test compound) were 95.08 % of control and 35.83 % of control, respectively. Besides, the “Tau aggregation remaining (ThT fluorescence, % of tau-only control)” value in test [2] (50 uM test compound) is 20.35 % of control; in test [2] (500 uM test compound), 1.71 % of control. Further, the “ThT fluorescence remaining (% of control)” value in test [3] (50 uM test compound) is recorded as 14.94 % of control; in test [3] (500 uM test compound), 5.16 % of control.
As to `CCN1C(=O)/C(=C/c2c[nH]c3cccnc23)SC1=S` [DN205781, (Z)-5-((1H-pyrrolo[3,2-b]pyridin-3-yl)methylene)-3-ethyl-2-thioxothiazolidin-4-one], the “Beta-amyloid aggregate degradation activity (% of control)” value is recorded as 85.76 % of control in test [1] (50 uM test compound) and 55.35 % of control in test [1] (500 uM test compound). Moreover, the “Tau aggregation remaining (ThT fluorescence, % of tau-only control)” value in test [2] (50 uM test compound) is on record as 74.46 % of control; in test [2] (500 uM test compound), 52.99 % of control. The entries for the “ThT fluorescence remaining (% of control)” value in test [3] (50 uM test compound) and in test [3] (500 uM test compound) were 28.74 % of control and 23.79 % of control, respectively.
Take `O=C1NC(=S)S/C1=C\c1ccc2occc2c1` [DN204809, (Z)-5-(benzofuran-5-ylmethylene)-2-thioxothiazolidin-4-one]: the “Beta-amyloid aggregate degradation activity (% of control)” value in test [1] (50 uM test compound) is listed as 95.14 % of control; in test [1] (500 uM test compound), 25.32 % of control. The “Tau aggregation remaining (ThT fluorescence, % of tau-only control)” value is listed as 36.72 % of control in test [2] (50 uM test compound) and 32.09 % of control in test [2] (500 uM test compound). Further, the “ThT fluorescence remaining (% of control)” value in test [3] (50 uM test compound) is reported as 51.93 % of control; in test [3] (500 uM test compound), 30.87 % of control.
As to `O=C1NC(=S)SC1Cc1cc[nH]c1` (stereo not shown) [DN204303, 5-((1H-pyrrol-3-yl)methyl)-2-thioxothiazolidin-4-one], the figures for the “Beta-amyloid aggregate degradation activity (% of control)” value in test [1] (50 uM test compound) and in test [1] (500 uM test compound) were 90.66 % of control and 33.65 % of control, respectively. Besides, the “Tau aggregation remaining (ThT fluorescence, % of tau-only control)” value in test [2] (50 uM test compound) is on record as 82.4 % of control; in test [2] (500 uM test compound), 29.14 % of control. For the same compound, the “ThT fluorescence remaining (% of control)” value is recorded as 81.77 % of control in test [3] (50 uM test compound) and 39.19 % of control in test [3] (500 uM test compound).
With `O=C1NC(=S)SC1Cc1c[nH]c2ncccc12` (stereo not shown) [DN204304, 5-((1H-pyrrolo[2,3-b]pyridin-3-yl)methyl)-2-thioxothiazolidin-4-one], the “Beta-amyloid aggregate degradation activity (% of control)” value in test [1] (50 uM test compound) is 97.47 % of control; in test [1] (500 uM test compound), 73.11 % of control. Also, the “Tau aggregation remaining (ThT fluorescence, % of tau-only control)” value was 70.66 % of control in test [2] (50 uM test compound) and 39.54 % of control in test [2] (500 uM test compound). The results for the “ThT fluorescence remaining (% of control)” value in test [3] (50 uM test compound) and in test [3] (500 uM test compound) were 67.53 % of control and 50.23 % of control, respectively.
On to `O=C1NC(=S)S/C1=C\c1cc[nH]c1` [DN204297, (Z)-5-((1H-pyrrol-3-yl)methylene)-2-thioxothiazolidin-4-one], for which the “Beta-amyloid aggregate degradation activity (% of control)” value in test [1] (50 uM test compound) was 86.80 % of control; in test [1] (500 uM test compound), 28.19 % of control. For the same compound, the results for the “Tau aggregation remaining (ThT fluorescence, % of tau-only control)” value in test [2] (50 uM test compound) and in test [2] (500 uM test compound) were 48.721 % of control and 16.233 % of control, respectively. The figures for the “ThT fluorescence remaining (% of control)” value in test [3] (50 uM test compound) and in test [3] (500 uM test compound) were 52.16 % of control and 17.97 % of control, respectively.
